Data on one compound can be found in patent publication US5985874A, “Substituted morpholine derivative and its use as a therapeutic agent” (Merck Sharp & Dohme Ltd., priority 1998, dated 1999).

One assay concerns the target NK1 receptor (Homo sapiens, UniProt P25103). Put plainly: NK1 receptor test by the methods of WO 93/01165 (pages 36 to 39). The settings on record: test methods of WO 93/01165, pages 36 to 39. It is filed as binding. The protocol: The compound of this invention was tested by the methods set out at pages 36 to 39 of International Patent Specification No. WO 93/01165.

Another assay concerns cisplatin-induced emesis. In words: ferret model of cisplatin-induced emesis (Tattersall et al, Eur. J. Pharmacol. 1993). It is filed as in vivo.

As a reminder, the IC50 is the concentration at which inhibition is half-maximal.

Chain of NK1 receptor (P25103 whole entry): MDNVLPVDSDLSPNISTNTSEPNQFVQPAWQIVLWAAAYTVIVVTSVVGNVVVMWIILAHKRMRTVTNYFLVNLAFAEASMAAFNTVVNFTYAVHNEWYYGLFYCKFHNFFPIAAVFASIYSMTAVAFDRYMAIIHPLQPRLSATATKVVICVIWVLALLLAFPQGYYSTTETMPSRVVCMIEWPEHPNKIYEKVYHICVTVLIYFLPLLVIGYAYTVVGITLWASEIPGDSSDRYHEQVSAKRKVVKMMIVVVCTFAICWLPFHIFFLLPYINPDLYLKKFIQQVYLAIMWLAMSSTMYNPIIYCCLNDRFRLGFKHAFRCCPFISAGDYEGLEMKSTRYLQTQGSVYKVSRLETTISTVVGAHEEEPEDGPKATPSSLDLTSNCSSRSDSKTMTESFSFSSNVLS

On NK1 receptor, `Cn1cnc(CN2CCO[C@H](O[C@H](CO)c3cc(C(F)(F)F)cc(C(F)(F)F)c3)[C@@H]2c2ccc(F)cc2)n1` [Example 1, 2(R)-(1-(3,5-Bis(trifluoromethyl)phenyl)-2(S)-hydroxyethoxy)-3(S)-(4-fluorophenyl)-4-((1-methyl-1,2,4-triazol-3-yl)methylene)morpholine] gave a half-inhibitory concentration (IC50) of under 1 nM. Further, the “retching and vomiting induced by cisplatin” value with cisplatin-induced emesis was “attenuate the retching and vomiting induced by cisplatin”.
